In patent publication US7786140B2, “Piperidine derivative having NMDA receptor antagonistic activity” (Shionogi & Co., Ltd., priority 2003, dated 2010):
Read-outs that look alike come from different tables or passages of the source.

Legend:
NR1/NR2B receptor [1] = molecular target: T1, NR1/NR2B receptor (Rattus norvegicus, UniProt P35439+Q00960); assay: Experiment of binding to NMDA receptor: competitive binding with [3H]-Ifenprodil, rat cerebral cortex membrane preparation; conditions: [3H]-Ifenprodil 5 nM, GBR-12909 3 μM, rat cerebral cortex membranes
T1 construct: the obtained solution was used as a membrane preparation for the experiment; from tissue; host or cells: rat cerebral cortex membrane preparation
T1 sequence (Q00960 27-1482, other chains not shown): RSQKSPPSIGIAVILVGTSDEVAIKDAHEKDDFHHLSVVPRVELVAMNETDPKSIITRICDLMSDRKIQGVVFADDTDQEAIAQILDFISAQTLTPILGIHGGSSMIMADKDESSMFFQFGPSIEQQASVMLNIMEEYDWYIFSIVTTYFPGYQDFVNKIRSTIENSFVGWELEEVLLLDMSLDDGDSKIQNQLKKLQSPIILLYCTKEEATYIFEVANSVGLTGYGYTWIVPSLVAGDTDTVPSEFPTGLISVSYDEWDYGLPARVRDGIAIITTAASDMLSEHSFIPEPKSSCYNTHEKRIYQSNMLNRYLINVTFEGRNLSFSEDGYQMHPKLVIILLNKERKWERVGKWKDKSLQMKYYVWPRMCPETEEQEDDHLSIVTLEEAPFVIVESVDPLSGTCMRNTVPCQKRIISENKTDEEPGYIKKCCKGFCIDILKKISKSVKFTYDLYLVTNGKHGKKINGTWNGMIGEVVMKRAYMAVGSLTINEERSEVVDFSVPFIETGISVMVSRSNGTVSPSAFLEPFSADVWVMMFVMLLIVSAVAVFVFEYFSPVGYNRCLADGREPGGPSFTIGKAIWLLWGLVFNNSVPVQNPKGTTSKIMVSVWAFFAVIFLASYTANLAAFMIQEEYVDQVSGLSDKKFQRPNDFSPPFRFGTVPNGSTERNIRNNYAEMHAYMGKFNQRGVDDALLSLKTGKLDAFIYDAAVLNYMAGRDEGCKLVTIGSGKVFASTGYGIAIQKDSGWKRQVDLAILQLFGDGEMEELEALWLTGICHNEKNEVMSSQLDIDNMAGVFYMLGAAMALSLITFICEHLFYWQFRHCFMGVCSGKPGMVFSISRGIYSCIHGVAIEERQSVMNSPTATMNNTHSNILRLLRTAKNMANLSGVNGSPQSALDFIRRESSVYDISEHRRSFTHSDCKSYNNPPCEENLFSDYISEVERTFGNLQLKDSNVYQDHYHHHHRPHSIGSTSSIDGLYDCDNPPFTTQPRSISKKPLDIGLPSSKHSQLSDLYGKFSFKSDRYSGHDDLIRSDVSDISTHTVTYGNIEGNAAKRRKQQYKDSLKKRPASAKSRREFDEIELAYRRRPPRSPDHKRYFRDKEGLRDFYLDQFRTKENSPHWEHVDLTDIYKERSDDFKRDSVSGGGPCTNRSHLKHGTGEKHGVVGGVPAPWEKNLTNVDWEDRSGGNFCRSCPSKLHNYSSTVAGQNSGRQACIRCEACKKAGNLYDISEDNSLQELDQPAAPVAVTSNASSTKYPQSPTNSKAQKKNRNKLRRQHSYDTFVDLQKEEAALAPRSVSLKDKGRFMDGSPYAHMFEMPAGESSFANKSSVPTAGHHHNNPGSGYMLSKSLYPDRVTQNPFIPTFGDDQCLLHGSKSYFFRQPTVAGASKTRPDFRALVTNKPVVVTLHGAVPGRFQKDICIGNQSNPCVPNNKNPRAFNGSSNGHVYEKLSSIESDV
Procedure: Experiment of Binding to NMDA Receptor
Competitive binding assays of the test compounds (10, 18 and 19) were carried out using Ifenprodil, which is an antagonist specific for the NR1/NR2B subtype receptor, as a ligand.
(§1) Male Slc: Wistar rats were killed by beheading, the brains were picked out and the cerebral cortex was fractionated. The cerebral cortex was homogenized with ice-cooled 50 mM Tris-HCl buffer (pH 7.4) in an amount 20 times of the cerebral cortex and centrifuged at 4° C. and 27,500×g for 10 minutes. The obtained precipitate was suspended with the same buffer solution and again centrifuged. These steps were repeated three times and the obtained precipitate was suspended with the buffer solution and stored at −80° C. Immediately before the experiment, the stored suspension was thawed at room temperature and centrifuged at 4° C. and 27,500×g for 10 minutes and the obtained precipitate was suspended with the buffer solution. Further the resulting solution was diluted 10 times with the buffer solution and the obtained solution was used as a membrane preparation for the experiment.
For the binding experiment, 10 μL of test compounds with different concentrations, 10 μL of [^3H]-Ifenprodil, and 10 μL GBR-12909 were added to 470 μL of the above-mentioned membrane preparation and incubated at icing temperature for 120 minutes. The final concentration of [^3H]-Ifenprodil was adjusted to be 5 nM and the final concentration of GBR-12909 was adjusted to be 3 μM. DMSO, which is a solvent, was used for measurement of the total binding quantity and 100 μM of Ifenprodil was used for measurement of the non-specific binding quantity. In this connection, GBR-12909 was added to block the binding of [^3H]-Ifenprodil to the non-polyamine-sensitive site. After the incubation, the bounded bodies and the free bodies were separated by Whatman GF/C filter paper (Whatman Inc.) and the filter paper was washed four times with 2.5 mL of the ice-cooled buffer solution. The filter paper was immersed in a liquid scintillation (Clear-Sol I, Nacalai Tesque Co., Ltd.) in a vial and the radioactivity (dpm) was measured by a liquid scintillation counter. The binding inhibition ratio (%) was calculated from the measured values according to the following equation and the dose for inhibiting 50% binding (IC50) was calculated.
(§2) Binding inhibition ratio (%)=100−[(binding quantity in the presence of the test compound−non-specific binding quantity)/(total binding quantity−non-specific binding quantity)]×100

PCP receptor = assay: Experiment of binding to PCP receptor: competitive binding with [3H] MK-801, rat cerebral cortex membrane preparation; conditions: for IC50: [3H] MK-801 2 nM, rat cerebral cortex membranes
Procedure: Experiment of Binding to PCP Receptor
MK-801 is reported to bind to PCP receptor and cause psychosis.
as §1, with “were used and after beheading of the rats,” for “were killed by beheading,”, “ice-cooled 5” for “ice-cooled 50”, “(pH 7.8)” for “(pH 7.4)”, “times as much” for “times of the cerebral cortex”, “diluted 2.5” for “diluted 10”
For the binding experiment, 10 μL of test compounds with different concentrations and 10 μL of marked ligand [^3H] MK-801 were added to 480 μL of the above-mentioned membrane preparation sample and incubated at 25° C. for 60 minutes. The final concentration of [^3H] MK-801 was adjusted to be 2 nM. DMSO, which is a solvent, was used for measurement of the total binding quantity and 10 μM of (+)MK-801 was used for measurement of the non-specific binding quantity. After the incubation, the bonded bodies and the free bodies were separated by Whatman GF/C filter paper (manufactured by Whatman Inc.) and the filter paper was washed four times with 2.5 mL of the ice-cooled buffer solution. The filter paper was immersed in a liquid scintillation in a vial (Clear-Sol I, manufactured by Nacalai Tesque Co., Ltd.) and the radiation dose (dpm) was measured by a liquid scintillation counter. The binding inhibition ratio (%) was calculated from the measured values according to the following equation and the dose for inhibiting 50% binding (IC50) was calculated.
as §2

NR1/NR2B receptor [2] = molecular target: NR1/NR2B receptor (Mus musculus, UniProt P35438+Q01097); assay: Electric physiological experiment: NMDA-induced inward current in Xenopus laevis oocytes expressing NMDA receptor subunits; assay type: cell-based
Chain of NR1/NR2B receptor (Mus musculus, UniProt P35438+Q01097) (Q01097 27-1482, other chains not shown): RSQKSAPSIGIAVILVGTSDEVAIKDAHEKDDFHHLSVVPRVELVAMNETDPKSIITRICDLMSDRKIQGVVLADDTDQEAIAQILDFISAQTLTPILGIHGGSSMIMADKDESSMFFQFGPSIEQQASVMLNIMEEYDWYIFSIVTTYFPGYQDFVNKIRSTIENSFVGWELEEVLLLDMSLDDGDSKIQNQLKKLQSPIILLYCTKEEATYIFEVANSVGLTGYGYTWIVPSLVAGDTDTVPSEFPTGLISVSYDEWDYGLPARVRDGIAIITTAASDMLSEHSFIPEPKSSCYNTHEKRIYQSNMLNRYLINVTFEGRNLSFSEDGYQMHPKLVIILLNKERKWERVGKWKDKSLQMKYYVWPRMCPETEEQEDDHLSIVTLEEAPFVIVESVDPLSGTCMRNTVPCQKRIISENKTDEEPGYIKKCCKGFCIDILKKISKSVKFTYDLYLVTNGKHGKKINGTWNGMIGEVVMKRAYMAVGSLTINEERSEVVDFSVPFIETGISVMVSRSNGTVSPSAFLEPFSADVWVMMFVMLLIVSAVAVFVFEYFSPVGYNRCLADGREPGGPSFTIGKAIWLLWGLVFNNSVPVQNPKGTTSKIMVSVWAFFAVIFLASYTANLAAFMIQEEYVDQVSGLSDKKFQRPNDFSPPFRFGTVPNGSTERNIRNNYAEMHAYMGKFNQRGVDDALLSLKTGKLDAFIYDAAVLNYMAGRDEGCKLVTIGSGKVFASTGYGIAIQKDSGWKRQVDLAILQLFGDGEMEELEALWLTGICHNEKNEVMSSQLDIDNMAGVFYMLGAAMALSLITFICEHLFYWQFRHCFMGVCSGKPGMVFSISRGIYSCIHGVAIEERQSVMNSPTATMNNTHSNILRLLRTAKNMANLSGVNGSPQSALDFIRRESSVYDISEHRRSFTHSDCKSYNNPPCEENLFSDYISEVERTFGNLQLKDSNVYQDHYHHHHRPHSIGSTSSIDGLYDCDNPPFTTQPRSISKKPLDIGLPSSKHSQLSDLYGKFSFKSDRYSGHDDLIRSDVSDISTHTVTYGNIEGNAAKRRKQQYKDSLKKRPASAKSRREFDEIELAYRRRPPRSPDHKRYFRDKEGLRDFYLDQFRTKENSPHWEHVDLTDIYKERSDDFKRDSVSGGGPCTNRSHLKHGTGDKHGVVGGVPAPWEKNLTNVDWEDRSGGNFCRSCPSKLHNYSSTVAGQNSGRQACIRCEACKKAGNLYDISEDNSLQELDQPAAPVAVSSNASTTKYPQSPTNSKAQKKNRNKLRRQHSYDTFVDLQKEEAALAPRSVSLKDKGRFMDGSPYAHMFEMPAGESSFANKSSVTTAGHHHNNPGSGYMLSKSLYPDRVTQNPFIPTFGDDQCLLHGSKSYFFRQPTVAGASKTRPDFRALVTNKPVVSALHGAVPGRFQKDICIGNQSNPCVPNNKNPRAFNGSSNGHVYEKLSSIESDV
Procedure: (§3) Expression and Electric Physiological Experiment of NMDA Receptor
(§4) Messenger RNA (mRNA) was transcribed with complementary DNA (cDNA) of mouse NMDA receptor subunits and the mRNA was injected in oocytes of Xenopus Laevis. From two days after the injection, the inward current induced by NMDA was recorded by two electrode membrane potential fixation apparatus. The injection amount of the mRNA was 0.6/0.6 ng on the basis of NR1/NR2B per one oocyte to co-expression of the subunits. Solutions of the test compound (18) with different concentrations were added to the oocytes and the inward current induced by NMDA was recorded by two electrode membrane potential fixation apparatus. The extercellular solution was Mg^2+-free ND96 (NaCl 96 mM, KCl 2 mM, CaCl2 1.8 mM, and Hepes 5 mM and pH=7.5) and the potential was retained at −60 mV. The NMDA current was induced by using NMDA 100 μM and glycine 10 μM. The measured values of the recorded inward current induced by NMDA were substituted in the following equation to calculate the electric response % and the dose for inhibiting 50% (IC50) were calculated. The IC50 values for the respective NR1/NR2A, C, and D receptors were calculated. Electric response (%)=(inward current induced by NMDA in the presence of the test compound/inward current induced by NMDA in the absence of the test compound)×100

NR1/NR2A receptor = NR1/NR2A receptor (Mus musculus, UniProt P35436+P35438); assay: as above; assay type: cell-based; conditions: NMDA 100 μM and glycine 10 μM, -60 mV
Procedure: as §3, §4

NR1/NR2D receptor = NR1/NR2D receptor (Mus musculus, UniProt P35438+Q03391); assay: as above; assay type: cell-based; conditions: NMDA 100 μM and glycine 10 μM, -60 mV
Chain of NR1/NR2D receptor (Q03391 28-1323, other chains not shown): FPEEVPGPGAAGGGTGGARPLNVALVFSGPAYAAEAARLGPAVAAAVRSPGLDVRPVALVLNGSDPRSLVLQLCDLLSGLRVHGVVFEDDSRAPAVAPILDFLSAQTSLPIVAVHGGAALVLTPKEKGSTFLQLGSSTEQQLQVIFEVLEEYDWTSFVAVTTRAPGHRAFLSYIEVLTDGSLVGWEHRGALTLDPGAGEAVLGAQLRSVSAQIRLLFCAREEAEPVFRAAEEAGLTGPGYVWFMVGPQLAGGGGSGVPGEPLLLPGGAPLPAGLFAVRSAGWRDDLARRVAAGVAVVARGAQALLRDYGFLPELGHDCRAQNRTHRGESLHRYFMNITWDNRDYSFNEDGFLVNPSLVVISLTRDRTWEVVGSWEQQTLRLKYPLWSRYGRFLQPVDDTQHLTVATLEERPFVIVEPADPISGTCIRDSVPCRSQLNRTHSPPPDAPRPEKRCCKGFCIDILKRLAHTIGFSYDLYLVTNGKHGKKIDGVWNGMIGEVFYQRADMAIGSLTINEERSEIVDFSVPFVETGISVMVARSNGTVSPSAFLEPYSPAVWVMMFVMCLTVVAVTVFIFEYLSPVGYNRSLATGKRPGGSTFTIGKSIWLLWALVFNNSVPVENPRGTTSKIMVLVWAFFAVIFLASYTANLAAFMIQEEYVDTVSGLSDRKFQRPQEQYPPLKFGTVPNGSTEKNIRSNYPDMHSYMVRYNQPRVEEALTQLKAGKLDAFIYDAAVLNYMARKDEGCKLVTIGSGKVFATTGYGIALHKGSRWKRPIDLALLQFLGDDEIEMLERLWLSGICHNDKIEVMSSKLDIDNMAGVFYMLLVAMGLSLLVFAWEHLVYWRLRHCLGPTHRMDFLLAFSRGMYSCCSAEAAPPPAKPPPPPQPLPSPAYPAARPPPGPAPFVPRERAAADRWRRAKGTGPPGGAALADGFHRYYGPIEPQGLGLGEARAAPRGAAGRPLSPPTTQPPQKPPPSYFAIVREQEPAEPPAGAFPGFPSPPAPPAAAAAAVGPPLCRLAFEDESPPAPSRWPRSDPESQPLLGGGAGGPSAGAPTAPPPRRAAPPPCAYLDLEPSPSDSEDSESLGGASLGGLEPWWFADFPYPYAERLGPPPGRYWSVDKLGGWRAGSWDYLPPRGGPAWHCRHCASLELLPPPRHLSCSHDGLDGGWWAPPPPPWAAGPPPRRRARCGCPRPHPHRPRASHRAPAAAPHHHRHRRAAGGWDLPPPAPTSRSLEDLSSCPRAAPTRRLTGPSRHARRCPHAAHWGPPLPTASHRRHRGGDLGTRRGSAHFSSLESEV
Procedure: as §3, §4

NR1/NR2C receptor = NR1/NR2C receptor (Mus musculus, UniProt P35438+Q01098); assay: as above; assay type: cell-based; conditions: NMDA 100 μM and glycine 10 μM, -60 mV
Procedure: as §3, §4

ICR type male mice = assay: Analgesic effect in mouse formalin test; assay type: in vivo; conditions: for ED50: Mus musculus, injected into the vein 5 minutes before 2% formalin
Procedure: Analgesic Effect in Mouse Formalin Test
The pain behavior attributed to formalin can be classified into two time-dependent phases and mice show pain behaviors, so-called licking and biting. In the first phase, acute pain was caused within 5 minutes immediately after formalin administration, and in the second phase, inflammatory pain was caused for 20 minutes from 10 to 30 minutes after the administration. ICR type male mice (5-week old) were used for the experiment. Formalin (2%) was subcutaneously injected to the right hind paw of the mice. The test compound (18) was dissolved in a solution, DMSO:HCO50:saline=1.5:1:7.5 and injected in difference concentrations into the vein 5 minutes before the formalin administration. The pain behavior time was measured for 30 minutes after formalin administration. The pain behavior time is to be shortened in the case the test compound causes analgesic effect. The measured time is substituted in the following equation to calculate the analgesic ratio (%) and the dose for 50% efficacy (ED50) was calculated. Analgesic ratio (%)=[…]

SMILES: O=C(CCCN1CCC(O)(Cc2ccc(OC(F)(F)F)cc2)CC1)c1ccc(O)cc1 [Compound 10]
- IC50 (NR1/NR2B receptor [1]): 0.016 µM
- competition with MK-801 at the PCP receptor (in words) (PCP receptor): not competitive with MK-801
- IC50 (PCP receptor): 20 µM

SMILES: O=C(CCCN1CC=C(Cc2ccc(F)cc2)CC1)c1ccc(O)cc1 [Compound 19]
- IC50 (NR1/NR2B receptor [1]): 0.002 µM
- competition with MK-801 at the PCP receptor (in words) (PCP receptor): not competitive with MK-801
- IC50 (PCP receptor): 10 µM

SMILES: O=C(CCCN1CC=C(c2ccc(Cl)cc2)CC1)c1ccc(O)cc1 [Compound 32]
- IC50 (NR1/NR2B receptor [1]): 0.003 µM

SMILES: CC(C(O)c1ccc(O)cc1)N1CCC(O)(c2ccccc2)CC1 (racemic) [CP-101606, reference compound]
- IC50 (PCP receptor): 13 µM

SMILES: Cc1ccccc1CC1=CCN(CCCC(=O)c2ccc(O)cc2)CC1 [Compound 18]
- IC50 (NR1/NR2B receptor [1]): 0.004 µM
- competition with MK-801 at the PCP receptor (in words) (PCP receptor): not competitive with MK-801
- IC50 (PCP receptor): 3 µM
- antagonistic effect on NR1/NR2 subfamilies (in words) (NR1/NR2B receptor [2]): specific antagonistic effect on the NR1/NR2B receptor
- IC50 (NR1/NR2B receptor [2]; NMDA 100 μM and glycine 10 μM, -60 mV, Xenopus oocytes): 4.6 µM
- IC50 (NR1/NR2A receptor): > 30 µM
- IC50 (NR1/NR2D receptor): > 30 µM
- IC50 (NR1/NR2C receptor): > 30 µM
- ED50 (ICR type male mice; acute pain within 5 minutes, read-out: ED50, the first phase): 1.1 mg/kg
- ED50 (ICR type male mice; inflammatory pain 10 to 30 minutes, read-out: ED50, the second phase): 0.7 mg/kg
- analgesic effect (in words) (ICR type male mice; mouse, in vivo): confirmed
